Measured values taken from ChEMBL document CHEMBL3826875, “2,8-Disubstituted-1,6-Naphthyridines and 4,6-Disubstituted-Isoquinolines with Potent, Selective Affinity for CDK8/19” (ACS Med Chem Lett, 2016).

Species on record: Mus musculus
Test: not given
Details: SW-620, 5 mg/kg

For `COC1CN(C(=O)c2ccc3c(N)ncc(-c4ccc(-c5cnn(C)c5)cc4)c3n2)C1`, the inhibition was “tde”.

System: not listed separately
Test: in vitro
Details: human, Caco-2

`Cn1cc(-c2ccc(-c3cnc(N)c4ccc(N5CCOC5=O)cc34)cc2)cn1` and `Cn1cc(-c2ccc(-c3cnc(N)c4ccc(C(=O)N5CCC5)cc34)cc2)cn1` are within 1.5-fold of each other in Papp A→B at 2 h, 1 µM: 20.6 ×10⁻⁶ cm/s for the first, 27.2 ×10⁻⁶ cm/s for the second.

Going from `Cn1cc(-c2ccc(-c3cnc(N)c4ccc(C(=O)N5CC(F)(F)C5)cc34)cc2)cn1` to `Cn1cc(-c2ccc(-c3cnc(N)c4ccc(C(=O)N5CC(C)(F)C5)cc34)cc2)cn1`, the Papp A→B at 2 h, 1 µM falls from 39.7 ×10⁻⁶ cm/s to 25.8 ×10⁻⁶ cm/s (1.5-fold).

`Cn1cc(-c2ccc(-c3cnc(N)c4ccc(C(=O)N5CCOCC5)nc34)cc2)cn1` and `Cn1cc(-c2ccc(-c3cnc(N)c4ccc(C(=O)N5CCC5)nc34)cc2)cn1` are within 1.5-fold of each other in Papp A→B at 2 h, 1 µM: 34 ×10⁻⁶ cm/s for the first, 42.6 ×10⁻⁶ cm/s for the second.

First: COC1(C)CN(C(=O)c2ccc3c(N)ncc(-c4ccc(-c5cnn(C)c5)cc4)c3c2)C1
Second: COC1(C)CN(C(=O)c2ccc3c(N)ncc(-c4ccc(-c5cnn(C)c5)cc4)c3n2)C1
The Papp A→B at 2 h, 1 µM of the first is 1.6-fold lower: 25.2 ×10⁻⁶ cm/s for the first, 40.1 ×10⁻⁶ cm/s for the second.

`Cn1cc(-c2ccc(-c3cnc(N)c4ccc(C(=O)NC5CC5)cc34)cc2)cn1` and `COC1CN(C(=O)c2ccc3c(N)ncc(-c4ccc(-c5cnn(C)c5)cc4)c3n2)C1` are within 1.5-fold of each other in Papp A→B at 2 h, 1 µM: 32.5 ×10⁻⁶ cm/s for the first, 28.6 ×10⁻⁶ cm/s for the second.

`Cn1cc(-c2ccc(-c3cnc(N)c4ccc(C(=O)N5CC(F)(F)C5)nc34)cc2)cn1` and `Cn1cc(-c2ccc(-c3cnc(N)c4ccc(C(=O)N5CC(C)(F)C5)nc34)cc2)cn1` are within 1.5-fold of each other in Papp A→B at 2 h, 1 µM: 23.9 ×10⁻⁶ cm/s for the first, 27.6 ×10⁻⁶ cm/s for the second.

For `Cn1cc(-c2ccc(-c3cnc(N)c4ccc(C(=O)N5CCNCC5)nc34)cc2)cn1`, the Papp A→B at 2 h, 1 µM was 0.96 ×10⁻⁶ cm/s.
